According to patent publication US20240247080A1, “GLP1/GIP/NPY2 RECEPTOR TRIPLE AGONISTS” (Boehringer Ingelheim International GmbH, priority 2022, published 2024):
Like-named read-outs stand apart in the source and are kept apart here. Non-standard residues stand in square brackets, D forms with d. Residues, ends and D or L forms follow the SMILES beside them. Groups on a side chain read outwards from the residue. ξ: configuration not given here. *: point of attachment. C18 diacid = O=C(O)CCCCCCCCCCCCCCCCC(=O)*; NMeY = CN[C@@H](Cc1ccc(O)cc1)C(=O)O; αMeF = C[C@](N)(Cc1ccccc1)C(=O)O; ξIva = CCC(C)(N)C(=O)O; Aib = CC(C)(N)C(=O)O

What was measured:
[1] = Solubility in 0.1 M phosphate buffer at pH 7; assay type: physicochemical; details: phosphate buffer
Method: Peptides (as TFA-salts) were weighed out in a filter unit (Mini-UniPrep Syringieless Filter 0.45 prn. Whatman PVDF), and 0.1 M phosphate buffer at pH 7 was added to achieve 10 mg/mL final peptide concentration. The peptides were dissolved by shaking the filter units horizontally at 600 rpm for 2 hours at room temperature. Samples were then filtered to remove any insoluble particles. Controls were prepared by weighing out the corresponding peptide solid material and dissolving it in an appropriate vehicle (e.g. ACN:H2O) to a final concentration of 1 mg/mL. Both, the control and sample were analyzed by reversed phase chromatography. The area under the peak of the sample was compared to the control and the solubility was calculated based on that ratio. The pH was measured and recorded for each sample.

[2] = Mouse PK after intravenous application; assay type: in vivo; details: plasma, mean residence time, intravenous 30-60 nmol/kg, male NMRI mice
Outline: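 Male NMRI mice (30–40 g) received 30-60 nmol/kg peptide by tail-vein injection, dissolved in 50 mM phosphate buffer (pH 7.4)/3.5% mannitol. Saphenous blood was sampled up to 56 hours post-dose and EDTA plasma analysed by LC-MS. PK parameters came from non-compartmental analysis.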

hGLP1R = target: T1, hGLP1R (Homo sapiens, UniProt P43220); experiment: hGLP1R CreLuc reporter gene assay in 0.5% and 100% plasma; assay type: cell-based; details: CreLuc reporter gene assay, 0.5% human plasma; read-out: hGLP1R 0.5% hP
T1 construct: expressed in transfected cells; host or cells: HEK-293 cells carrying a CRE-luciferase reporter gene
Outline: (§1)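 HEK-293 cells co-expressing GLP-1 or NPY2 receptor and CHO cells expressing GIP receptor, each carrying a CRE-driven luciferase reporter, were stimulated with peptides for 4 hours at 37 °C. Luminescence was read after Bright-Glo addition. EC50 came from 8-point, four-decade curves fitted by variable-slope non-linear regression.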

hGIPR = target: T2, hGIPR (Homo sapiens, UniProt P48546); experiment: hGIPR CreLuc reporter gene assay in 0.5% and 100% plasma; assay type: cell-based; details: CreLuc reporter gene assay, 0.5% human plasma; read-out: hGIPR 0.5% hP
T2 construct: expressed in transfected cells; host or cells: CHO cells carrying a CRE-luciferase reporter gene
T2 sequence (P48546 22-466): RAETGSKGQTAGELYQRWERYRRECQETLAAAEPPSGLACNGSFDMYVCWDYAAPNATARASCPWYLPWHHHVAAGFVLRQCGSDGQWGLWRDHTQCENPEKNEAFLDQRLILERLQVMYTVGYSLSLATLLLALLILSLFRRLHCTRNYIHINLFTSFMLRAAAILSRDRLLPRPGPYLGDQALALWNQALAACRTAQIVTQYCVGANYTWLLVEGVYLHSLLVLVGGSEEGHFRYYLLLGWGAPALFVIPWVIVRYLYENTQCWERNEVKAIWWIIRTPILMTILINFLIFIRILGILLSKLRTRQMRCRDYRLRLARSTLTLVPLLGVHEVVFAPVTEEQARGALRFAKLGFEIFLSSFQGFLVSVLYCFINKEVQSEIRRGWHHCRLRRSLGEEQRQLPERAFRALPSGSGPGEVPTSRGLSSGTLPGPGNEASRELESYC
Outline: as §1

hNPY2R = target: T3, hNPY2R (Homo sapiens, UniProt P49146); experiment: hNPY2R CreLuc reporter gene assay in 0.5% and 100% plasma; assay type: cell-based; details: CreLuc reporter gene assay
T3 construct: expressed in transfected cells; host or cells: HEK-293 cells carrying a CRE-luciferase reporter gene
T3 sequence (P49146 1-381): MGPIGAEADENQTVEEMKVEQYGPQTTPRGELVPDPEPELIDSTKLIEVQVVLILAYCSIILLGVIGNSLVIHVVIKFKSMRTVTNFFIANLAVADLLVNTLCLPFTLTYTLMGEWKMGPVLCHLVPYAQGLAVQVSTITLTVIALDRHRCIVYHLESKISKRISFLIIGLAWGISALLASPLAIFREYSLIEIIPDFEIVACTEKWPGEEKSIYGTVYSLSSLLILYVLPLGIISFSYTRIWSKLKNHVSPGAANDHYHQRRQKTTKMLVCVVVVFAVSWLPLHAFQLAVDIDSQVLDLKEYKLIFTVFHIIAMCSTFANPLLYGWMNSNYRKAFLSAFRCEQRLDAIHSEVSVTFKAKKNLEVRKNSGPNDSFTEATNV
Outline: as §1

[3] = Effect on acute food intake in normal NMRI mice; assay type: in vivo; details: 30 nmol/kg subcutaneously once, normalized to vehicle group, male NMRI mice
Method: Example 4: Effect on Acute Food Intake in Normal NMRI Mice
Male NMRI mice were obtained from Janvier (Janvier Labs, France) or from Charles River (Charles River Research Models & Services Germany GmbH) at the age of 3 weeks. The animals get a microchip (Datamars, Slim Microchip T-SL) for individual identification after delivery. They were housed with 4 mice per cage under a 12/12 dark-light cycle, light off at 3 p.m. Room temperature was controlled to 21° C. +/−1° C. and humidity 60%+/−20%. Mice had ad libitum access to regular rodent chow (KLIBA Nafag 3040 or Altromin 1324, Brogaarden, Denmark) and tap water.
Latest transfer into the HM2-System of MBRose, Denmark (real-time monitoring system of food- and water intake) of the animals 5 days before study start, to allow acclimatization to experimental conditions. As the animals were uniquely identified with the microchips, each individual animal was identified by its own microchip upon entry and exit from the food channel via antennae. Randomization of the mice for each study group (n=8; age earliest 6 weeks old) was based on food intake (middle of last three days 24 h-Intervall) and bodyweight directly before start of the study. A vehicle treated (50 mM phosphate buffer pH7.4 with 3.5% Mannitol) group was included in each experiment. To have the same nutrition standard for each animal the food access was locked eight hours before dark phase. One hour before night, the animals were once treated subcutaneously with the test peptide. Food intake was reported hourly for a period of 24 h.

[4] = 0.5% human plasma, read-out: hNPY2R 0.5% hP

T1 sequence (P43220 24-463): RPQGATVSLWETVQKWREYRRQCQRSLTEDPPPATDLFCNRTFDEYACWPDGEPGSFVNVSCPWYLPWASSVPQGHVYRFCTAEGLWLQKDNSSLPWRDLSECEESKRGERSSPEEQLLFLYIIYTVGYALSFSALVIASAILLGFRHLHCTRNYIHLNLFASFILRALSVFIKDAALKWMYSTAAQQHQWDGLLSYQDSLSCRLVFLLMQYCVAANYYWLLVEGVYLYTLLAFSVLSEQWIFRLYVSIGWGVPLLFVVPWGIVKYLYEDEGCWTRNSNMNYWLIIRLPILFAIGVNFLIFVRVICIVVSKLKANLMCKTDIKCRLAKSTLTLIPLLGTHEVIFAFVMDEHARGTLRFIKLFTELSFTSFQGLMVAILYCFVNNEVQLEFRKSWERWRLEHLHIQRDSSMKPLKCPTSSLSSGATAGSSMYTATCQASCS

| solubility [1] | MRT [2] | EC50 (hGLP1R) | EC50 (hGIPR) | EC50 (hNPY2R; [4]) | EC50 (hNPY2R; 100% human plasma, read-out: hNPY2R 100% hP) | Compound | Acute Food Intake 24 h 30 nmol/kg [% CTL] [3] |
| --- | --- | --- | --- | --- | --- | --- | --- |
| < 1000 µg/mL | 4.3 h |  |  |  |  | CC[C@H](C)[C@H](NC(=O)[C@H](CO)NC(=O)[C@H](CCCCNC(=O)CNC(=O)CNC(=O)CNC(=O)CNC(=O)CCCCCCCCCCCCCCCCC(=O)O)NC(=O)[C@H](CC(=O)O)NC(=O)[C@H](CO)NC(=O)[C@@H](NC(=O)[C@](C)(Cc1ccccc1)NC(=O)[C@@H](NC(=O)CNC(=O)[C@H](CCC(=O)O)NC(=O)C(C)(C)NC(=O)[C@H](Cc1ccc(O)cc1)NC)[C@@H](C)O)[C@@H](C)O)C(=O)NC(C)(C)C(=O)N[C@@H](CC(C)C)C(=O)N[C@@H](CCC(=O)O)C(=O)N[C@@H](CCCCN)C(=O)N[C@@H](CCC(N)=O)C(=O)N[C@@H](CCCNC(=N)N)C(=O)N[C@@H](CCC(N)=O)C(=O)NC(C)(CC)C(=O)N[C@@H](CCC(=O)O)C(=O)N[C@@H](Cc1ccccc1)C(=O)N[C@H](C(=O)N[C@@H](CCCNC(=N)N)C(=O)N[C@@H](Cc1c[nH]cn1)C(=O)N[C@@H](CC(C)C)C(=O)N[C@@H](CC(C)C)C(=O)N[C@@H](CC(N)=O)C(=O)N[C@@H](CCCCN)C(=O)NC(C)(C)C(=O)N[C@H](C(=O)N[C@@H](CCCNC(=N)N)C(=O)N[C@@H](CCC(N)=O)C(=O)N[C@@H](CCCNC(=N)N)C(=O)N[C@@H](Cc1ccc(O)cc1)C(N)=O)[C@@H](C)O)C(C)C (stereo partly drawn) [Ref. 2, NMeY-Aib-E-G-T-aMeF-T-S-D-K(1,3)-S-I-Aib-L-E-K-Q-R-Q-Iva-E-F-V-R-H-L-L-N-K-Aib-T-R-Q-R-Y-NH2.C18DA-G-G-G-G(1,2), reference compound] (H-[NMeY][Aib]EGT[αMeF]TSDK([Gly-Gly-Gly-Gly-C18 diacid])SI[Aib]LEKQRQ[ξIva]EFVRHLLNK[Aib]TRQRY-NH2) |  |
|  | 11.8 h | 0.24 nM | 0.19 nM | 13.3 nM |  | CC[C@H](C)[C@H](NC(=O)[C@H](CC(C)C)NC(=O)[C@H](Cc1c[nH]c2ccccc12)NC(=O)[C@H](CCC(=O)O)NC(=O)[C@@H](NC(=O)[C@H](Cc1ccccc1)NC(=O)[C@H](C)NC(=O)C(C)(C)NC(=O)[C@H](CCC(N)=O)NC(=O)[C@H](C)NC(=O)[C@H](CCC(N)=O)NC(=O)[C@H](CCCCN)NC(=O)[C@H](CCC(=O)O)NC(=O)[C@H](CC(C)C)NC(=O)C(C)(C)NC(=O)[C@@H](NC(=O)[C@H](CO)NC(=O)[C@H](Cc1ccc(O)cc1)NC(=O)[C@H](CC(=O)O)NC(=O)[C@H](CO)NC(=O)[C@@H](NC(=O)[C@H](Cc1ccccc1)NC(=O)[C@@H](NC(=O)CNC(=O)[C@H](CCC(=O)O)NC(=O)C(C)(C)NC(=O)[C@@H](N)Cc1ccc(O)cc1)[C@@H](C)O)[C@@H](C)O)[C@@H](C)CC)C(C)C)C(=O)N[C@@H](CCCCNC(=O)[C@@H](N)CCCCNC(=O)CC[C@H](NC(=O)CC[C@H](NC(=O)CC[C@H](NC(=O)CC[C@H](NC(=O)CC[C@H](NC(=O)CC[C@H](NC(=O)CCCCCCCCCCCCCCCCCCC(=O)O)C(=O)O)C(=O)O)C(=O)O)C(=O)O)C(=O)O)C(=O)O)C(=O)NCC(=O)NCC(=O)N1CCC[C@H]1C(=O)N[C@@H](CO)C(=O)N[C@@H](CCC(=O)O)C(=O)NCC(=O)N[C@@H](C)C(=O)N[C@@H](CO)C(=O)N[C@@H](CC(C)C)C(=O)N[C@@H](CCCNC(=N)N)C(=O)N[C@@H](Cc1c[nH]cn1)C(=O)N[C@@H](Cc1ccc(O)cc1)C(=O)N[C@@H](Cc1ccc(O)cc1)C(=O)N[C@@H](CC(N)=O)C(=O)N[C@@H](Cc1c[nH]c2ccccc12)C(=O)N[C@@H](CC(C)C)C(=O)N[C@H](C(=O)N[C@@H](CCCNC(=N)N)C(=O)N(C)[C@@H](CCC(N)=O)C(=O)N[C@@H](CCCNC(=N)N)C(=O)N[C@@H](Cc1ccc(O)cc1)C(N)=O)[C@@H](C)O [Compound 222, Y-Aib-E-G-T-F-T-S-D-Y-S-I-Aib-L-E-K-Q-A-Q-Aib-A-F-V-E-W-L-I-K(1,3)-G-G-P-S-E-G-A-S-L-R-H-Y-Y-N-W-L-T-R-NMeQ-R-Y-NH2.C20DA-gGlu-gGlu-gGlu-gGlu-gGlu-gGlu-eLys(1,2)] | 72 % CTL |
|  | 11 h | 0.11 nM | 0.14 nM | 12.4 nM | 49.3 nM | CC[C@H](C)[C@H](NC(=O)[C@H](CC(C)C)NC(=O)[C@H](Cc1c[nH]c2ccccc12)NC(=O)[C@H](CCC(=O)O)NC(=O)[C@@H](NC(=O)[C@H](Cc1ccccc1)NC(=O)[C@H](C)NC(=O)C(C)(C)NC(=O)[C@H](CCC(N)=O)NC(=O)[C@H](C)NC(=O)[C@H](CCC(N)=O)NC(=O)[C@H](CCCCN)NC(=O)[C@H](CCC(=O)O)NC(=O)[C@H](CC(C)C)NC(=O)C(C)(C)NC(=O)[C@@H](NC(=O)[C@H](CO)NC(=O)[C@H](Cc1ccc(O)cc1)NC(=O)[C@H](CC(=O)O)NC(=O)[C@H](CO)NC(=O)[C@@H](NC(=O)[C@H](Cc1ccccc1)NC(=O)[C@@H](NC(=O)CNC(=O)[C@H](CCC(=O)O)NC(=O)C(C)(C)NC(=O)[C@@H](N)Cc1ccc(O)cc1)[C@@H](C)O)[C@@H](C)O)[C@@H](C)CC)C(C)C)C(=O)N[C@@H](CCCCNC(=O)[C@@H](N)CCCCNC(=O)CC[C@H](NC(=O)CC[C@H](NC(=O)CC[C@H](NC(=O)CC[C@H](NC(=O)CC[C@H](NC(=O)CC[C@H](NC(=O)CCCCCCCCCCCCCCCCCCC(=O)O)C(=O)O)C(=O)O)C(=O)O)C(=O)O)C(=O)O)C(=O)O)C(=O)NCC(=O)NCC(=O)N1CCC[C@H]1C(=O)N[C@@H](CO)C(=O)N[C@@H](CO)C(=O)NCC(=O)N[C@@H](C)C(=O)N[C@@H](CO)C(=O)N[C@@H](CC(C)C)C(=O)N[C@@H](CCCNC(=N)N)C(=O)N[C@@H](Cc1c[nH]cn1)C(=O)N[C@@H](Cc1ccc(O)cc1)C(=O)N[C@@H](Cc1ccc(O)cc1)C(=O)N[C@@H](CC(N)=O)C(=O)N[C@@H](Cc1c[nH]c2ccccc12)C(=O)N[C@@H](CC(C)C)C(=O)N[C@H](C(=O)N[C@@H](CCCNC(=N)N)C(=O)N[C@@H](CCC(N)=O)C(=O)N[C@@H](CCCNC(=N)N)C(=O)N[C@@H](Cc1ccc(O)cc1)C(N)=O)[C@@H](C)O [Compound 221, Y-Aib-E-G-T-F-T-S-D-Y-S-I-Aib-L-E-K-Q-A-Q-Aib-A-F-V-E-W-L-I-K(1,3)-GGPSSGASLRHYYNWLTRQRY-NH2.C20DA-gGlu-gGlu-gGlu-gGlu-gGlu-gGlu-eLys(1,2)] | 51 % CTL |
